Reference: BigSolDB 2.1

Cc1ccc(S(=O)[O-])cc1.[Na+]
solubility (mole fraction) (in DMF, 278.15 K): 0.00114 | solubility (mole fraction) (in DMF, 283.15 K): 0.00169 | solubility (mole fraction) (in DMF, 288.15 K): 0.0025 | solubility (mole fraction) (in DMF, 293.15 K): 0.00365 | solubility (mole fraction) (in DMF, 298.15 K): 0.00525 | solubility (mole fraction) (in DMF, 303.15 K): 0.00747 | solubility (mole fraction) (in DMF, 308.15 K): 0.0105 | solubility (mole fraction) (in DMF, 313.15 K): 0.0146 | solubility (mole fraction) (in DMF, 318.15 K): 0.02 | solubility (mole fraction) (in acetone, 278.15 K): 0.00039 | solubility (mole fraction) (in acetone, 283.15 K): 0.00047 | solubility (mole fraction) (in acetone, 288.15 K): 0.00057 | solubility (mole fraction) (in acetone, 293.15 K): 0.00067 | solubility (mole fraction) (in acetone, 298.15 K): 0.0008 | solubility (mole fraction) (in acetone, 303.15 K): 0.00094 | solubility (mole fraction) (in acetone, 308.15 K): 0.00111 | solubility (mole fraction) (in acetone, 313.15 K): 0.0013 | solubility (mole fraction) (in acetone, 318.15 K): 0.00151 | solubility (mole fraction) (in acetonitrile, 278.15 K): 5.8e-05 | solubility (mole fraction) (in acetonitrile, 283.15 K): 7.7e-05 | solubility (mole fraction) (in acetonitrile, 288.15 K): 9.9e-05 | solubility (mole fraction) (in acetonitrile, 293.15 K): 0.00013 | solubility (mole fraction) (in acetonitrile, 298.15 K): 0.00016 | solubility (mole fraction) (in acetonitrile, 303.15 K): 0.00021 | solubility (mole fraction) (in acetonitrile, 308.15 K): 0.00027 | solubility (mole fraction) (in acetonitrile, 313.15 K): 0.00033 | solubility (mole fraction) (in acetonitrile, 318.15 K): 0.00041 | solubility (mole fraction) (in ethanol, 278.15 K): 0.0031 | solubility (mole fraction) (in ethanol, 283.15 K): 0.00328 | solubility (mole fraction) (in ethanol, 288.15 K): 0.00337 | solubility (mole fraction) (in ethanol, 293.15 K): 0.00345 | solubility (mole fraction) (in ethanol, 298.15 K): 0.00354 | solubility (mole fraction) (in ethanol, 303.15 K): 0.00363 | solubility (mole fraction) (in ethanol, 308.15 K): 0.00373 | solubility (mole fraction) (in ethanol, 313.15 K): 0.00383 | solubility (mole fraction) (in ethanol, 318.15 K): 0.00393 | solubility (mole fraction) (in isopropanol, 278.15 K): 0.00083 | solubility (mole fraction) (in isopropanol, 283.15 K): 0.00086 | solubility (mole fraction) (in isopropanol, 288.15 K): 0.00089 | solubility (mole fraction) (in isopropanol, 293.15 K): 0.00093 | solubility (mole fraction) (in isopropanol, 298.15 K): 0.00097 | solubility (mole fraction) (in isopropanol, 303.15 K): 0.001 | solubility (mole fraction) (in isopropanol, 308.15 K): 0.00105 | solubility (mole fraction) (in isopropanol, 313.15 K): 0.00109 | solubility (mole fraction) (in isopropanol, 318.15 K): 0.00113 | solubility (mole fraction) (in methanol, 278.15 K): 0.0234 | solubility (mole fraction) (in methanol, 283.15 K): 0.0313 | solubility (mole fraction) (in methanol, 288.15 K): 0.04 | solubility (mole fraction) (in methanol, 293.15 K): 0.0511 | solubility (mole fraction) (in methanol, 298.15 K): 0.0665 | solubility (mole fraction) (in methanol, 303.15 K): 0.0851 | solubility (mole fraction) (in methanol, 308.15 K): 0.106 | solubility (mole fraction) (in methanol, 313.15 K): 0.13 | solubility (mole fraction) (in methanol, 318.15 K): 0.156 | solubility (mole fraction) (in n-butanol, 278.15 K): 0.00032 | solubility (mole fraction) (in n-butanol, 283.15 K): 0.00035 | solubility (mole fraction) (in n-butanol, 288.15 K): 0.00039 | solubility (mole fraction) (in n-butanol, 293.15 K): 0.00043 | solubility (mole fraction) (in n-butanol, 298.15 K): 0.00047 | solubility (mole fraction) (in n-butanol, 303.15 K): 0.00052 | solubility (mole fraction) (in n-butanol, 308.15 K): 0.00057 | solubility (mole fraction) (in n-butanol, 313.15 K): 0.00063 | solubility (mole fraction) (in n-butanol, 318.15 K): 0.00069 | solubility (mole fraction) (in n-propanol, 278.15 K): 0.00301 | solubility (mole fraction) (in n-propanol, 283.15 K): 0.00311 | solubility (mole fraction) (in n-propanol, 288.15 K): 0.00321 | solubility (mole fraction) (in n-propanol, 293.15 K): 0.00331 | solubility (mole fraction) (in n-propanol, 298.15 K): 0.00347 | solubility (mole fraction) (in n-propanol, 303.15 K): 0.00364 | solubility (mole fraction) (in n-propanol, 308.15 K): 0.00381 | solubility (mole fraction) (in n-propanol, 313.15 K): 0.00401 | solubility (mole fraction) (in n-propanol, 318.15 K): 0.00421 | solubility (mole fraction) (in water, 278.15 K): 0.0172 | solubility (mole fraction) (in water, 283.15 K): 0.0201 | solubility (mole fraction) (in water, 288.15 K): 0.0234 | solubility (mole fraction) (in water, 293.15 K): 0.0272 | solubility (mole fraction) (in water, 298.15 K): 0.0314 | solubility (mole fraction) (in water, 303.15 K): 0.0358 | solubility (mole fraction) (in water, 308.15 K): 0.0404 | solubility (mole fraction) (in water, 313.15 K): 0.0453 | solubility (mole fraction) (in water, 318.15 K): 0.0514
